Assay results published in US20240116985A1, “STAPLED PEPTIDES AND METHODS THEREOF” (priority 2020, published 2024).
In brackets after ≈: the same amount, converted by molar mass. Read-outs that look alike come from different tables or passages of the source.

Key:
[1] = biological target: T1, full-length beta-Catenin (Uniprot ID P35222) (Homo sapiens, UniProt P35222); assay: Fluorescence polarization IC50 (beta-catenin / 5FAM-TCF4 10-53 competition); assay type: binding
T1 construct: 10 nM full-length beta-Catenin (Uniprot ID P35222)
T1 sequence (P35222 1-781): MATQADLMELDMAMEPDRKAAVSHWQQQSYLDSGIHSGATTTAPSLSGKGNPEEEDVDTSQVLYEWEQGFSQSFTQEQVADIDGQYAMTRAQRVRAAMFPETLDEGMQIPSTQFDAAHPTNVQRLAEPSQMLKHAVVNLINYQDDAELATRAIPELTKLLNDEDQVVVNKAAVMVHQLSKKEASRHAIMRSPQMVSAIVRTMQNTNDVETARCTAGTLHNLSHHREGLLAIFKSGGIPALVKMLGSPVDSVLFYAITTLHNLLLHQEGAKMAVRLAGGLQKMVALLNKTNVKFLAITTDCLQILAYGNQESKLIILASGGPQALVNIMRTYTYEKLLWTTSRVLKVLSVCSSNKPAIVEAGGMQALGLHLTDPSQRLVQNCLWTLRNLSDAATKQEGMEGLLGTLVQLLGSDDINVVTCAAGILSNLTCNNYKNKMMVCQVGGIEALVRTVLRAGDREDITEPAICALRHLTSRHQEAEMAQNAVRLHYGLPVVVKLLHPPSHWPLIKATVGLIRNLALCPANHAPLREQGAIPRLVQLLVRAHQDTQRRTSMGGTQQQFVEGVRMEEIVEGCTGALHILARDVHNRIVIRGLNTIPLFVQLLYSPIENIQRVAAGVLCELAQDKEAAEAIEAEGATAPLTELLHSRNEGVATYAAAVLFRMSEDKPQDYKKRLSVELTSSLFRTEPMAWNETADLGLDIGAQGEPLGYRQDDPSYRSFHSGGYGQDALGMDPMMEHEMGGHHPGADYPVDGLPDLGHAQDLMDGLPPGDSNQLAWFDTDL

[2] = CHI Log D procedure; assay type: physicochemical; conditions: for chromatographic logD: pH 7.4, CHI Log D; for CHI Log D: pH 7.4
[3] = Solubility in PBS; assay type: physicochemical
Summary of the method: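 Steps: ultracentrifuge the peptide PBS solution, inject the supernatant on HPLC, inject a 50 μM peptide DMSO solution as reference, then calculate solubility as area ratio (PBS/DMSO) × 50 uM.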

[4] = biological target: T2, beta-catenin/TCF4 engagement (Homo sapiens, UniProt P35222); assay: Nano-BRET target engagement assay (B-cat-Halo & TCF4-Luc in HEK293 cells); assay type: cell-based; conditions: for IC50: read-out: NanoBRET Abs IC50
T2 construct: expressed in transfected cells; host or cells: HEK293
T2 sequence (P35222 1-781): T1 sequence (P35222 1-781)

[5] = fluorescence polarization, read-out: beta-Catenin FP IC50

| Compound | IC50 ([1]; read-out: beta-Catenin FP IC50) [nM] | chromatographic logD [2] | Solubility ([3]; Solubility (uM)) [µM] | inhibition at 10 µM ([4]; HEK293, 10 uM, read-out: NanoBRET % inh @ 10 uM) [%] | IC50 [4] [nM] | IC50 ([1]; fluorescence polarization, beta-catenin, read-out: FP EC50) [nM] | CHI Log D [2] | Solubility [3] [µM] | IC50 [1, 5] [nM] | IC50 ([1]; read-out: FP EC50) [nM] | IC50 ([4]; absolute IC50) [nM] |
| --- | --- | --- | --- | --- | --- | --- | --- | --- | --- | --- | --- |
| CC(=O)N1CCC[C@]12CC=CCCCC1(CCCC=CCCCOC(=O)N3CC[C@@](C(=O)N[C@@H](Cc4ccsc4)C(=O)N[C@@H](Cc4csc5ccccc45)C(=O)N[C@@H](Cc4c[nH]cn4)C(=O)N[C@@H](C)C(N)=O)(C3)NC(=O)[C@H](CC(N)=O)NC(=O)[C@H](Cc3ccccc3)NC(=O)[C@H](C)NC(=O)[C@H](C)NC(=O)[C@H](CC(=O)O)NC(=O)[C@H](CC(=O)O)NC1=O)NC(=O)[C@H](CC(C)(C)C)NC(=O)[C@H](CC(=O)O)NC2=O (stereo partly drawn) [I-820, Ac-PL3-Asp-Npg-B5-Asp-Asp-Ala-Ala-Phe-Asn-PyrS2-3Thi-BztA-His-Ala-NH2] | 6 | 2.1 | 38 (≈ 75.9 µg/mL) | 30.8 | 18200 | – | – | – | – | – | – |
| CC(=O)N1CCC[C@]12CC=CCCCC1(CCCC=CCCCCCC[C@@](C)(C(=O)N[C@@H](Cc3ccccc3Cl)C(=O)N[C@@H](Cc3csc4ccccc34)C(=O)N[C@@H](CCC(N)=O)C(N)=O)NC(=O)[C@H]([C@@H](C)O)NC(=O)[C@H](Cc3ccccc3)NC(=O)[C@H](C)NC(=O)[C@H](C)NC(=O)[C@H](CCC(=O)O)NC(=O)[C@H](CC(=O)O)NC1=O)NC(=O)[C@H](CC(C)(C)C)NC(=O)[C@H](CC(=O)O)NC2=O (stereo partly drawn) [I-1088, Ac-PL3-Asp-Npg-B5-Asp-Glu-Ala-Ala-Phe-Thr-S8-2ClF-BztA-Gln-NH2] | 22 | – | – | – | 6300 | 22 | 2.8 | 44 (≈ 83.8 µg/mL) | – | – | – |
| CC(=O)N1CCC[C@]12CC=CCCCC1(CCCC=CCCCCCC[C@@](C)(C(=O)N[C@@H](Cc3ccccc3)C(=O)N[C@@H](Cc3csc4ccccc34)C(=O)N[C@@H](CCC(N)=O)C(=O)N[C@@H](C)C(N)=O)NC(=O)[C@H](CC(N)=O)NC(=O)[C@H](Cc3ccccc3)NC(=O)[C@H](C)NC(=O)[C@H](C)NC(=O)[C@H](CCC(=O)O)NC(=O)[C@H](CC(=O)O)NC1=O)NC(=O)[C@H](CC(C)C)NC(=O)[C@H](CC(=O)O)NC2=O (stereo partly drawn) [I-730, Ac-PL3-Asp-Leu-B5-Asp-Glu-Ala-Ala-Phe-Asn-S8-Phe-BztA-Gln-Ala-NH2] | – | – | – | – | – | – | 2.377 | 44 (≈ 85.4 µg/mL) | 35 | 35 | 11200 |
| CC(=O)N1CCC[C@]12CC=CCCCC1(CCCC=CCCCOC(=O)N3CC[C@@](C(=O)N[C@@H](Cc4ccsc4)C(=O)N[C@@H](Cc4csc5ccccc45)C(=O)N[C@@H](CCC(N)=O)C(N)=O)(C3)NC(=O)[C@H](CC(N)=O)NC(=O)[C@H](Cc3ccccc3)NC(=O)[C@H](CCCCNC(=O)CCc3cccc4ccccc34)NC(=O)[C@H](C)NC(=O)[C@H](CC(=O)O)NC(=O)[C@H](CC(=O)O)NC1=O)NC(=O)[C@H](CC(C)(C)C)NC(=O)[C@H](CC(=O)O)NC2=O (stereo partly drawn) [I-884, Ac-PL3-Asp-Npg-B5-Asp-Asp-Ala-[1NapPr]Lys-Phe-Asn-PyrS2-3Thi-BztA-Gln-NH2] | 14 | 2.11 | 34 (≈ 73.4 µg/mL) | – | > 20000 | – | – | – | – | – | – |
| CC[C@H](C)[C@@H]1NC(=O)[C@H](CC(=O)O)NC(=O)[C@]2(CC=CCCCC3(CCCC=CCCCCCC[C@@](C)(C(=O)N[C@@H](Cc4ccccc4)C(=O)N[C@@H](Cc4csc5ccccc45)C(=O)N[C@@H](CCC(N)=O)C(N)=O)NC(=O)[C@H](CCC(N)=O)NC(=O)[C@H](Cc4cccs4)NC(=O)[C@H](C)NC(=O)[C@H](C)NC(=O)[C@H](CCC(=O)O)NC(=O)[C@H](CC(=O)O)NC3=O)NC1=O)CCCN2C(C)=O (stereo partly drawn) [I-485, Ac-PL3-Asp-Ile-B5-Asp-Glu-Ala-Ala-2Thi-Gln-S8-Phe-BztA-Gln-NH2] | – | 2.3 | – | – | – | – | – | 50 (≈ 94.5 µg/mL) | 34 | – | 11300 |
